Laboratory results published in patent US6211155A, “Peptide conjugates derived from thymic hormones, their use as a medicament and compositions containing them” (Institut European de Biologie Cellulaire, priority 1995, dated 2001).
Where no end group is shown, it is not given here.

Columns and labels:
[1] = system: normal human keratinocytes; test: Synthesis of 46-47 KD keratin by human keratinocytes in primary culture; type: cell-based; conditions: compared with a control
Procedure: (§1) Culture of normal human keratinocytes
(§2) The epidermis is then dissociated under gentle mechanical action, or enzymically, in order to obtain the individual cells. Only the basal cells are capable of multiplying in vitro.
(§3) The culture is carried out at 37° C. in a controlled moist atmosphere ([…] --5% CO2).
(§4) In monolayer culture, the calcium concentration is between 0.05 and 0.1 mM. […] The synthesis of the keratinocytes is maintained. The intercellular spaces are wide: cell connections are maintained by microvillosities and not by tight junctions. While the tonofilaments of the perinuclear space can be seen, they are still not attached to the anchoring plaques.
(§5) Stratification can be induced by increasing the final calcium concentration in the culture medium to 1.2 mM. The formation of desmosomes then appears after 2 hours.
(§6) I ETF derivative No. IX, which has been lyophilized
in Dextran (40 g/l) and which is at a concen-
tration of 10^-6 M in the final culture medium.
II Crist. SIGMA thymopoietin - at a concentration of
10^-6 M in the final culture medium.
(§7) Human keratinocytes are cultured as described by Henning et al. (1983) or Fuchs et al. (1981). Air/liquid cultures are also carried out using the following methodology.
The cell markers which are selected are the low-molecular-weight 46/47 KD keratins, which are specific for the growth and cell differentiation of the germinative cells.
(§8) Indirect fluorescent labeling by the sandwich technique--48 hours after adding calcium to the culture medium (stratification).
rat antihuman 46-47 KD keratin antibody
FITC-labeled mouse antirat Ig G2 antibody.
(§9) Use of immunofluorescence, with graphic recording, for measuring cell markers.
(§10) Spectrofluorometric assays
(§11) "Perkin Elmer LS-50 B spectrofluorimeter".
(§12) on cell homogenate supernatants.
(§13) LOWRY technique using a Perkin Elmer UV spectrophotometer (cell homogenate supernatants).
(§14) The fluorescence intensity of the cells treated with ETF No. IX is assessed in comparison with the fluorescence intensity of the controls.

[2] = system: normal human keratinocytes; test: Synthesis of keratohyalin (filaggrin) by human keratinocytes in primary culture; type: cell-based; conditions: for Stimulation % (keratohyalin synthesis): compared with a control; for Keratin/protein mean (keratohyalin synthesis, Table III): proteins expressed in micrograms/ml
Procedure: as §1, §2, §3, §4, §5, §6
in Dextran (40 g/l) and which is at a concen- […]
II Crist. SIGMA thymopoietin - at a concentration of […]
as §7
The filaggrins are markers of keratohyalin.
as §8
human antikeratohyalin (filaggrin) antibody
FITC-labeled goat antihuman Ig G antibody.
as §9, §10, §11, §12, §13, §14

[3] = system: Thy 1.2+ thymocytes of the epidermis; test: Thy 1.2+ epidermal cell density after topical application to mouse ear (immunofluorescence); type: in vivo, C57-BL/6 mice; conditions: for Number of Thy 1.2+ cells per mm^2 of epidermis, batch 1 / Number of Thy 1.2+ cells per mm^2 of epidermis, batch 2 / Number of Thy 1.2+ cells per mm^2 of epidermis, batch 3 / Number of Thy 1.2+ cells per mm^2 of epidermis, batch 4 / Number of Thy 1.2+ cells per mm^2 of epidermis, Mean: C 57 BL/6 mice; for Number of Thy 1.2+ cells per mm^2 of epidermis, Mean: 4 batches; for Thy 1.2+ cells % T: relative to PG controls
Procedure: (§15) I--Experimental Samples--Code: ETF
(§16) In solution in propylene glycol at a concentration of 10^-5 M/ml
(§17) 5 to 7-week-old male C 57-BL/6 mice, which are divided into groups of 4 per cage, and which have free access to water and food and which are subjected to a photoperiod of 12 h of light per 24 hours, are given a topical application of the peptide in propylene glycol (50 μl vol) on the dorsal surface of the ear daily for 5 consecutive days.
(§18) The animals are sacrificed on day 6. The ears are removed, with the dorsal and ventral surfaces being separated.
(§19) The tissues of the dorsal surface are immersed in Na EDTA (0.020 M) at 37° C. for 2 h.
(§20) After incubation, the epidermis is removed in the form of an intact sheet, fixed with acetone and rehydrated in PBS (phosphate buffer).
(§21) The Thy 1-2+ and Ia+ EDC (epidermal dendritic cells) are identified by indirect immunofluorescence double labeling.
(§22) In the case of each epidermal sheet, the number of cells per mm^2 is determined using the peripheral regions of the same surface.
The Thy 1.2+ EDC were identified by indirect immunofluorescence double labeling. The epidermal sheets were fixed with acetone and then rehydrated in PBS.
The tissues were labeled simultaneously, at 4° C. for 16 h, with mouse anti-Thy 1.2+ antibody which was diluted 1:100. The tissue samples were washed three times in PBS for 60 min and then incubated, at 37° C. for 60 min, either with goat antimouse antibody which was coupled to rhodamine and diluted 1:20, or with goat antirabbit antibody which was coupled to fluorescein (fluorescine and diluted 1:20 in PBS. The tissues were then washed in PBS before being mounted as previously described.
(§23) In the case of each epidermal sheet, the number of Ia+ Langerhans cells or Thy 1.2+ EDCs per square millimeter was determined by means of immunofluorescence, using a confocal Zeiss microscope which was equipped for this purpose, in four peripheral areas of the same surface. At least four animals were studied in each of the groups. The density of Ia+ Langerhans cells and Thy 1.2+ EDCs is shown for each measurement.

Ia+ Langerhans cells = test: Ia+ Langerhans cell density after topical application to mouse ear; type: in vivo, C57-BL/6 mice; conditions: for Number of Ia+ cells per mm^2 of epidermis, batch 1 / Number of Ia+ cells per mm^2 of epidermis, batch 2 / Number of Ia+ cells per mm^2 of epidermis, batch 3 / Number of Ia+ cells per mm^2 of epidermis, batch 4 / Number of Ia+ cells per mm^2 of epidermis, Mean: C 57 BL/6 mice; for Number of Ia+ cells per mm^2 of epidermis, Mean: 4 batches; for Ia+ cells %: relative to PG controls
Procedure: as §15, §16, §17, §18, §19, §20, §21, §22
The EDC (epidermal dendritic cells) carrying the Ia+ marker were identified using an anti-Ia+ monoclonal antibody.
The epidermal sheets are fixed with acetone and then incubated, at 37° C. for 1 h, in the presence of the anti-Ia+ monoclonal antibody, which has been labeled by the indirect immunoperoxidase method (Kit).
After having been incubated at 37° C. for 10 minutes with a solution of aminoethylcarbazole, the preparation is washed with PBS.
as §23

Substance: A-Gln-Gly-Gly-Ser-Asn-NH2 (QGGSN; not fully specified (N-terminus, C-terminus)) [ETF No. IX, A not specified; lyophilized in Dextran for the test]
- Stimulation % (46-47 KD keratin synthesis) ([1]; Concentration 10^-6 M): 90%
- Stimulation % (46-47 KD keratin synthesis) ([1]; Concentration 10^-8 M): 95%
- Stimulation % (46-47 KD keratin synthesis) ([1]; Concentration 10^-10 M): 86%
- Stimulation % (46-47 KD keratin synthesis) ([1]; Concentration 10^-12 M): 41%
- Stimulation % (keratohyalin synthesis) ([2]; Concentration 10^-6 M): 62%
- Keratin/protein mean (keratohyalin synthesis, Table III) ([2]; Concentration 10^-6 M): 5.97
- Stimulation % (keratohyalin synthesis) ([2]; Concentration 10^-8 M): 83%
- Keratin/protein mean (keratohyalin synthesis, Table III) ([2]; Concentration 10^-8 M): 6.75
- Stimulation % (keratohyalin synthesis) ([2]; Concentration 10^-10 M): 39%
- Keratin/protein mean (keratohyalin synthesis, Table III) ([2]; Concentration 10^-10 M): 5.13
- Stimulation % (keratohyalin synthesis) ([2]; Concentration 10^-12 M): 38%
- Keratin/protein mean (keratohyalin synthesis, Table III) ([2]; Concentration 10^-12 M): 5.11

Substance: thymopoietin [reference compound]
- Stimulation % (46-47 KD keratin synthesis) ([1]; Concentration 10^-6 M): 19%
- Stimulation % (keratohyalin synthesis) ([2]; Concentration 10^-6 M): 35%
- Keratin/protein mean (keratohyalin synthesis, Table III) ([2]; Concentration 10^-6 M): 4.99

Substance: A-Pyr-Ala-Lys-Ser-Gln-Gly-Gly-Ser-Asn-NH2 (AKSQGGSN; not fully specified (N-terminus, C-terminus); printed as A-Pyr-Ala-Lys-Ser-Gln-Gly-Gly-Ser-Asn-NH2) [ETF-I, A of the tested sample not restated]
- Number of Thy 1.2+ cells per mm^2 of epidermis, batch 1 ([3]; dose 0.10 Nanog.): 197 cells per mm^2
- Number of Thy 1.2+ cells per mm^2 of epidermis, batch 2 ([3]; dose 0.10 Nanog.): 180 cells per mm^2
- Number of Thy 1.2+ cells per mm^2 of epidermis, batch 3 ([3]; dose 0.10 Nanog.): 192 cells per mm^2
- Number of Thy 1.2+ cells per mm^2 of epidermis, batch 4 ([3]; dose 0.10 Nanog.): 207 cells per mm^2
- Number of Thy 1.2+ cells per mm^2 of epidermis, Mean ([3]; dose 0.10 Nanog.): 194.00 cells per mm^2
- Thy 1.2+ cells % T ([3]; dose 0.10 Nanog.): 120%
- Number of Thy 1.2+ cells per mm^2 of epidermis, batch 1 ([3]; dose 0.50 Nanog.): 200 cells per mm^2
- Number of Thy 1.2+ cells per mm^2 of epidermis, batch 2 ([3]; dose 0.50 Nanog.): 208 cells per mm^2
- Number of Thy 1.2+ cells per mm^2 of epidermis, batch 3 ([3]; dose 0.50 Nanog.): 199 cells per mm^2
- Number of Thy 1.2+ cells per mm^2 of epidermis, batch 4 ([3]; dose 0.50 Nanog.): 219 cells per mm^2
- Number of Thy 1.2+ cells per mm^2 of epidermis, Mean ([3]; dose 0.50 Nanog.): 206.50 cells per mm^2
- Thy 1.2+ cells % T ([3]; dose 0.50 Nanog.): 134%
- Number of Thy 1.2+ cells per mm^2 of epidermis, batch 1 ([3]; dose 1.00 Nanog.): 214 cells per mm^2
- Number of Thy 1.2+ cells per mm^2 of epidermis, batch 2 ([3]; dose 1.00 Nanog.): 210 cells per mm^2
- Number of Thy 1.2+ cells per mm^2 of epidermis, batch 3 ([3]; dose 1.00 Nanog.): 208 cells per mm^2
- Number of Thy 1.2+ cells per mm^2 of epidermis, batch 4 ([3]; dose 1.00 Nanog.): 226 cells per mm^2
- Number of Thy 1.2+ cells per mm^2 of epidermis, Mean ([3]; dose 1.00 Nanog.): 214.50 cells per mm^2
- Thy 1.2+ cells % T ([3]; dose 1.00 Nanog.): 143%
- Number of Ia+ cells per mm^2 of epidermis, batch 1 (Ia+ Langerhans cells; dose 0.10 Nanog.): 368 cells per mm^2
- Number of Ia+ cells per mm^2 of epidermis, batch 2 (Ia+ Langerhans cells; dose 0.10 Nanog.): 388 cells per mm^2
- Number of Ia+ cells per mm^2 of epidermis, batch 3 (Ia+ Langerhans cells; dose 0.10 Nanog.): 378 cells per mm^2
- Number of Ia+ cells per mm^2 of epidermis, batch 4 (Ia+ Langerhans cells; dose 0.10 Nanog.): 395 cells per mm^2
- Number of Ia+ cells per mm^2 of epidermis, Mean (Ia+ Langerhans cells; dose 0.10 Nanog.): 382.25 cells per mm^2
- Ia+ cells % (Ia+ Langerhans cells; dose 0.10 Nanog.): 273%
- Number of Ia+ cells per mm^2 of epidermis, batch 1 (Ia+ Langerhans cells; dose 0.50 Nanog.): 360 cells per mm^2
- Number of Ia+ cells per mm^2 of epidermis, batch 2 (Ia+ Langerhans cells; dose 0.50 Nanog.): 392 cells per mm^2
- Number of Ia+ cells per mm^2 of epidermis, batch 3 (Ia+ Langerhans cells; dose 0.50 Nanog.): 386 cells per mm^2
- Number of Ia+ cells per mm^2 of epidermis, batch 4 (Ia+ Langerhans cells; dose 0.50 Nanog.): 399 cells per mm^2
- Number of Ia+ cells per mm^2 of epidermis, Mean (Ia+ Langerhans cells; dose 0.50 Nanog.): 384.25 cells per mm^2
- Ia+ cells % (Ia+ Langerhans cells; dose 0.50 Nanog.): 275%
- Number of Ia+ cells per mm^2 of epidermis, batch 1 (Ia+ Langerhans cells; dose 1.00 Nanog.): 372 cells per mm^2
- Number of Ia+ cells per mm^2 of epidermis, batch 2 (Ia+ Langerhans cells; dose 1.00 Nanog.): 410 cells per mm^2
- Number of Ia+ cells per mm^2 of epidermis, batch 3 (Ia+ Langerhans cells; dose 1.00 Nanog.): 390 cells per mm^2
- Number of Ia+ cells per mm^2 of epidermis, batch 4 (Ia+ Langerhans cells; dose 1.00 Nanog.): 412 cells per mm^2
- Number of Ia+ cells per mm^2 of epidermis, Mean (Ia+ Langerhans cells; dose 1.00 Nanog.): 396.00 cells per mm^2
- Ia+ cells % (Ia+ Langerhans cells; dose 1.00 Nanog.): 286%
